# Test results published in ChEMBL document CHEMBL1129927, “Further evidence for a dopamine reuptake pharmacophore. The effect of N-methylation on Threo-methylphenidate and its analogs” (Bioorg Med Chem Lett, 1997).
# What was measured:
# [1] = Hill coefficient was determined
# [2] = molecular target: Sodium-dependent dopamine transporter (Rattus norvegicus, UniProt P23977); test: The compound was tested for its affinity at the rat striatal dopamine transporter by the displacement of [3H]WIN-35428
# [3] = Ratio of inhibitory concentration of compound 5d to 6d
# Chain of Sodium-dependent dopamine transporter (P23977 whole entry): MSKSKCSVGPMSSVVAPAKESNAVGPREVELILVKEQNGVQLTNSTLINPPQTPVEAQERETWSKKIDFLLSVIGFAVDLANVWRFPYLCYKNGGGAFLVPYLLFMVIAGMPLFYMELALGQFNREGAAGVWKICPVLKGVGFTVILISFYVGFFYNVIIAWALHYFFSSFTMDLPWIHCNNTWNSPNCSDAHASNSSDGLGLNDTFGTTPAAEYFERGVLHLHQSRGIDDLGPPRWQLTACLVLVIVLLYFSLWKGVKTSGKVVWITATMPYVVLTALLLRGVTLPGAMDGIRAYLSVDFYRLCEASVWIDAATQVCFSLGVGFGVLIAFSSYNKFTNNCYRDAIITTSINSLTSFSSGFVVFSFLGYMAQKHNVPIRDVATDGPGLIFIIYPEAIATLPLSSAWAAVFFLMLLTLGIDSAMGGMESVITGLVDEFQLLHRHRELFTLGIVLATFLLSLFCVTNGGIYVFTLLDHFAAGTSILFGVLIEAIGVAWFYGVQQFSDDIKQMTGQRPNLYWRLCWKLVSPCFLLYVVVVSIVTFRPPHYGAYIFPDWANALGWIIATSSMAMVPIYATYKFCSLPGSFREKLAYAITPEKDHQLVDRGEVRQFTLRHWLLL
Structure (SMILES),Hill coefficient [1],IC50 [2] [nM],Ratio [3]
COC(=O)[C@H](c1ccc(C)cc1)C1CCCCN1 (stereo not given in full),1.05,33,4.2
COC(=O)[C@H](c1ccccc1)[C@H]1CCCCN1C,1,500,
COC(=O)[C@H](c1cccc(Cl)c1)C1CCCCN1 (stereo not given in full),0.95,5.1,
COC(=O)[C@H](c1cccc(C)c1)[C@H]1CCCCN1,1.01,21.4,
COC(=O)[C@H](c1cccc(C)c1)[C@H]1CCCCN1C,1,108,
COC(=O)[C@H](c1ccc(C)cc1)[C@H]1CCCCN1C,1.03,139,
COC(=O)[C@H](c1cccc(Cl)c1)[C@H]1CCCCN1C,0.96,161,
COC(=O)[C@H](c1ccc(O)cc1)[C@H]1CCCCN1C,1.06,1220,
COC(=O)[C@H](c1ccc(O)cc1)[C@H]1CCCCN1,1.07,98,
COC(=O)[C@H](c1ccccc1)[C@H]1CCCCN1,0.9,,
